The structures appear in SMILES notation. The source made the active and inactive calls. The rule behind the calls is not given here.

The species entered for the first assay is Ovis aries. Put plainly: Inhibition of phosphatidyl serine liposome-stimulated sheep brain dynamin 1 GTPase activity assessed as reduction orthophosphate release at 300 uM using GTP as substrate after 30 mins by malachite green reagent based colorimetric assay relative to control.
Details: not given
Broadly, the inhibition is the share of the control response that was lost under treatment. As to `CCNc1cc(C)nc(NCCN(C)C)n1`, the inhibition entry is “inactive”.

For the molecule `CCCCNc1cc(C)nc(NCCN(C)C)n1`, the inhibition is over 50%.

For `CCCCNc1nc(C)cc(NCCN(C)C)n1`, the inhibition entry was “inactive”.

As to `Cc1cc(NCc2ccccc2)nc(NCCN(C)C)n1`, the inhibition was over 50%.

For the molecule `Cc1cc(NCCN(C)C)nc(NCc2ccccc2)n1`, the inhibition is over 50%.

Take `CCNc1nc(C)cc(NCCN(C)C)n1`: the inhibition result was “inactive”.

With `CCC(C)Nc1nc(C)cc(NCCN(C)C)n1` (stereo unspecified), the inhibition is over 50%.

On to `CCC(C)Nc1cc(C)nc(NCCN(C)C)n1` (stereo unspecified), for which the inhibition entry was “inactive”.

On to `CCCNc1cc(C)nc(NCCN(C)C)n1`, for which the inhibition result was “inactive”.

Regarding `CCCNc1nc(C)cc(NCCN(C)C)n1`, the inhibition result is “inactive”.

The species entered for another assay is Ovis aries. Put plainly: Inhibition of phosphatidyl serine liposome-stimulated sheep brain dynamin 1 GTPase activity assessed as reduction orthophosphate release up to 300 uM using GTP as substrate after 30 mins by malachite green reagent based colorimetric assay relative to control.
Details: not given
As to `CCCNc1cc(C)nc(Cl)n1`, the inhibition entry is “inactive”.

For the molecule `CCCCNc1nc(C)cc(Cl)n1`, the inhibition result was “inactive”.

For the molecule `CCCCCCNc1nc(C)cc(Cl)n1`, the inhibition result was “inactive”.

As for `Cc1cc(Cl)nc(NC2CCCCC2)n1`, the inhibition entry is “inactive”.

For the molecule `CCNc1cc(C)nc(Cl)n1`, the inhibition entry is “inactive”.

Turning to `COc1ccc(CNc2nc(C)cc(Cl)n2)cc1`, the inhibition result was “inactive”.

Regarding `Cc1cc(Cl)nc(N2CCN(C)CC2)n1`, the inhibition result is “inactive”.

With `Cc1cc(NCc2ccccc2)nc(Cl)n1`, the inhibition result is “inactive”.

With `Cc1cc(NCCN)nc(Cl)n1`, the inhibition entry was “inactive”.

`CCCNc1nc(C)cc(Cl)n1`: the inhibition result was “inactive”.

Turning to `Cc1cc(NCCNC(=O)OC(C)(C)C)nc(Cl)n1`, the inhibition entry is “inactive”.

Take `CCCCCCCCNc1nc(C)cc(Cl)n1`: the inhibition entry was “inactive”.

`CCCN(CC1CC1)c1nc(C)cc(Cl)n1`: the inhibition entry is “inactive”.

As for `CCCCNc1cc(C)nc(Cl)n1`, the inhibition result was “inactive”.

With `Cc1cc(N2CCN(C)CC2)nc(Cl)n1`, the inhibition entry was “inactive”.

Take `CCC(C)Nc1cc(C)nc(Cl)n1` (stereo unspecified): the inhibition result was “inactive”.

As for `Cc1cc(NC2CCCCC2)nc(Cl)n1`, the inhibition entry is “inactive”.

Consider `Cc1cc(Cl)nc(N(C)C)n1`, for which the inhibition entry was “inactive”.

As to `CCCCCCNc1cc(C)nc(Cl)n1`, the inhibition entry was “inactive”.

Regarding `CCCCCCCCNc1cc(C)nc(Cl)n1`, the inhibition entry is “inactive”.

With `CCCCCCCCCCCCCCNc1cc(C)nc(Cl)n1`, the inhibition result is “inactive”.

Regarding `Cc1cc(Cl)nc(NCCNC(=O)OC(C)(C)C)n1`, the inhibition entry is “inactive”.

As to `CCCCCCCCCCNc1cc(C)nc(Cl)n1`, the inhibition entry was “inactive”.

Consider `Cc1cc(Cl)nc(NCCCN(C)C)n1`, for which the inhibition result is “inactive”.

`CCCCCCCCCCCCCCNc1nc(C)cc(Cl)n1`: the inhibition entry is “inactive”.

Take `Cc1cc(Cl)nc(NCCN)n1`: the inhibition result is “inactive”.

With `Cc1cc(Cl)nc(NCc2ccccc2)n1`, the inhibition result is “inactive”.

Turning to `Cc1cc(N(C)C)nc(Cl)n1`, the inhibition result was “inactive”.

For `Cc1cc(NCCCN(C)C)nc(Cl)n1`, the inhibition result is “inactive”.

Take `CCNc1nc(C)cc(Cl)n1`: the inhibition result was “inactive”.

As to `CCC(C)Nc1nc(C)cc(Cl)n1` (stereo unspecified), the inhibition result is “inactive”.

Take `CCCN(CC1CC1)c1cc(C)nc(Cl)n1`: the inhibition entry was “inactive”.

In the case of `COc1ccc(CNc2cc(C)nc(Cl)n2)cc1`, the inhibition result was “inactive”.

System in a further assay: not listed separately
Put plainly: Inhibition of phosphatidyl serine liposome-stimulated sheep brain dynamin 1 GTPase activity assessed as reduction orthophosphate release using GTP as substrate after 30 mins by malachite green reagent based colorimetric assay. Set-up: species or system Ovis aries.
Details: not given
Usually IC50 stands for the midpoint of a concentration-inhibition curve. With `CCCCCCCCCCCCCCNc1nc(C)cc(NCCN(C)C)n1`, the IC50 result was “Not Active”.

Still in this assay, the particulars now being: read-out: IC50.
Take `CCCCCCCCCCNc1cc(C)nc(NCCN(C)C)n1`: the IC50 worked out at 3.8 µM.

As to `Cc1cc(NCCN(C)C)nc(NC2CCCCC2)n1`, the half-maximal inhibitory concentration (IC50) is 3.8 µM.

Consider `CCCCCCCCCCCCCCCCCCNc1nc(C)cc(NCCN(C)C)n1`, for which the 50% inhibitory concentration (IC50) came out at 4.4 µM.

Take `CCCCCCCCCCNc1nc(C)cc(NCCN(C)C)n1`: the IC50 was 9.3 µM.

As to `CCCCCCCCCCCCNc1cc(NCCN(C)C)ncn1`, the IC50 worked out at 7.7 µM.

`CCCCNc1cc(C)nc(NCCN(C)C)n1`: the 50% inhibitory concentration (IC50) is over 50 µM.

With `CCCCCCCCCCCCNc1nc(C)cc(NCCC)n1`, the IC50 worked out at 4.7 µM.

In the case of `CCCCCCCCCCNc1cc(NCCN(C)C)ncn1`, the IC50 was 5.1 µM.

Turning to `CCCCCCCCCCCCNc1cc(C)nc(NCCN(C)C)n1`, the IC50 came out at 1.1 µM.

For `CCCCCCCCCCCCNc1nc(C)cc(NCCN)n1`, the IC50 was determined as 18.6 µM.

As for `CCCCCCNc1cc(C)nc(NCCN(C)C)n1`, the IC50 was 10.6 µM.

`CCCCCCCCCCCCNc1cc(C)nc(Cl)n1`: the concentration for half-maximal inhibition (IC50) was determined as 32.5 µM.

As for `CCCCCCCCCCCCNc1nc(C)cc(NCCO)n1`, the IC50 was found to be 5.5 µM.

In the case of `CCCCCCCCCCCCNc1cc(C)nc(N(C)C)n1`, the 50% inhibitory concentration (IC50) turned out to be 14 µM.

Take `Cc1cc(NCc2ccccc2)nc(NCCN(C)C)n1`: the IC50 is over 50 µM.

For `Cc1cc(NC2CCCCC2)nc(NCCN(C)C)n1`, the IC50 amounted to 20.6 µM.

Regarding `CCCCCCCCCCCCNc1nccc(NCCN(C)C)n1`, the IC50 was found to be 2 µM.

`CCCCCCCCCCCCNc1cc(C)nc(NCCN)n1`: the half-inhibitory concentration (IC50) came to 5.3 µM.

Regarding `CCCCCCCCCCCCNc1nc(C)cc(NCCCN(C)C)n1`, the IC50 came to 37.7 µM.

As for `CCCCCCCCCCN(CCCCCCCCCC)c1cc(C)nc(NCCN(C)C)n1`, the IC50 is 7.5 µM.

Turning to `Cc1cc(NCCN(C)C)nc(NCc2ccccc2)n1`, the IC50 is over 50 µM.

Take `CCCCCCCCCCCCNc1nc(C)cc(N(C)C)n1`: the IC50 was 3.3 µM.

`CCCCCCCCNc1nc(C)cc(NCCN(C)C)n1`: the IC50 was 2.5 µM.

`CCCN(CC1CC1)c1cc(C)nc(NCCN(C)C)n1`: the half-maximal inhibitory concentration (IC50) was 52 µM.

Regarding `CCCCCCCCCCCCCCNc1cc(C)nc(NCCN(C)C)n1`, the concentration for half-maximal inhibition (IC50) is 3.2 µM.

Consider `CCCCCCCCNc1cc(C)nc(NCCN(C)C)n1`, for which the IC50 was 1.6 µM.

For the molecule `CCCN(CC1CC1)c1nc(C)cc(NCCN(C)C)n1`, the IC50 stood at 59.8 µM.

`CCCCCCCCCCCCNc1ccnc(NCCN(C)C)n1`: the half-inhibitory concentration (IC50) is 1.8 µM.

On to `CCCCCCCCCCCCCCCCCCNc1cc(C)nc(NCCN(C)C)n1`, for which the IC50 came to 8.4 µM.

Turning to `CCCCCCCCCCNc1ccnc(NCCN(C)C)n1`, the IC50 came out at 2.9 µM.

`CCCCCCCCCCCCNc1cc(C)nc(NCCO)n1`: the 50% inhibitory concentration (IC50) was 4.6 µM.

In the case of `CCCCCCCCCCNc1nccc(NCCN(C)C)n1`, the IC50 worked out at 44.9 µM.

For `CCC(C)Nc1nc(C)cc(NCCN(C)C)n1` (stereo unspecified), the IC50 was over 50 µM.

For `CCCCCCCCCCCCNc1cc(C)nc(NCCC)n1`, the IC50 was 61.8 µM.

Take `CCCCCCCCCCN(CCCCCCCCCC)c1nc(C)cc(CCN(C)C)n1`: the IC50 worked out at 5.2 µM.

Turning to `CCCCCCNc1nc(C)cc(NCCN(C)C)n1`, the IC50 was 5.8 µM.

As to `CCCCCCCCCCCCNc1cc(C)nc(NCCCN(C)C)n1`, the IC50 came out at 49 µM.

Values taken from ChEMBL document CHEMBL4000185, “Pyrimidine-Based Inhibitors of Dynamin I GTPase Activity: Competitive Inhibition at the Pleckstrin Homology Domain” (J Med Chem, 2017).
